Results taken from patent US20090209535A1, “6-ETHER/THIOETHER-PURINES AS TOPOISOMERASE II CATALYTIC INHIBITORS AND THEIR USE IN THERAPY” (TOPOTARGET A/S, priority 2005, published 2009).

Experiments:
topoisomerase II α [1] = biological target: T1, topoisomerase II α (Homo sapiens, UniProt P11388); experiment: Topoisomerase II ATPase assay (coupled, NADH oxidation); type: biochemical; design: made in house; host or cells: yeast (over-expressing yeast cells)
Protocol: The reaction was monitored spectrophotometrically at 340 nm using a Bio-Tek EL808 Ultra Micro plate Reader connected to a computer with KC4 Software installed (Bio-Tek Instruments, U.S.). The change in absorbance was related to ADP production using A340^1M=6220 cm^−1. […] The rate of ATP hydrolysis, V, was determined from the linear part of the curve.
The steady-state rate of ATP hydrolysis was determined using a coupled ATPase assay as described herein. […] Error bars represent SEM of two independent experiments each performed in duplicate.
The steady-state rate of ATP hydrolysis was determined as described in for FIG. 3 and as described herein. In this analysis, the rate of ATP hydrolysis in the absence of drug was set to one in all experiments. Error bars represent SEM of 2 or 3 independent experiments each preformed in duplicate.

topoisomerase II α [2] = biological target: T1, topoisomerase II α; experiment: Band depletion assay (extractable topoisomerase II α, western blot); type: cell-based; design: OC—NYH cells were exposed to increasing concentrations of NSC 35866 for one hour and total proteins were extracted at 0.3 M NaCl; endogenous in cells; host or cells: human small cell lung cancer OC-NYH cells; conditions: 200 μM, OC—NYH cells, one hour
Protocol: Band depletion assay was performed essentially as described in Sehested et al., 1998. The amount of extractable topoisomerase II α was detected by the ECL detection method (Amersham, Buckinghamshire, United Kingdom). OC—NYH cells were exposed to increasing concentrations of NSC 35866 for one hour and total proteins were extracted at 0.3 M NaCl. For detection of topoisomerase II α, a polyclonal primary antibody (Bio Trend, Cologne, Germany) was used. Horseradish peroxidase linked anti-rabbit antibody (Amersham, Buckinghamshire, United Kingdom) was used as secondary antibody.
FIG. 10 describes the results of studies of the ability of NSC 35866 to trap human topoisomerase II α as a non-extractable complex on DNA in a dose dependent manner. The ability of NSC 35866 to stabilise topoisomerase II α as a non-extractable complex on DNA in human SCLC OC—NYH cells was assessed using the band depletion assay as described herein. The amounts of topoisomerase II α was visualised by western blotting using a topoisomerase II α specific primary antibody: Lane 1, no drug; Lane 2, 200 μM ICRF-187; Lane 3, 200 μM NSC 35866; Lane 4, 500 μM NSC 35866; Lane 5, 1000 μM NSC 35866. Band depletion of the topoisomerase II α isoform caused by NSC 35866 was detected in two independent experiments.

[3] = biological target: T2, bisdioxopiperazine resistant Y165S mutant human topoisomerase II α (Homo sapiens, UniProt P11388, Y165S); type: biochemical; conditions: FIG. 2-B
T2 construct: made in house; host or cells: yeast (over-expressing yeast cells)
T2 sequence (P11388 whole entry Y165S): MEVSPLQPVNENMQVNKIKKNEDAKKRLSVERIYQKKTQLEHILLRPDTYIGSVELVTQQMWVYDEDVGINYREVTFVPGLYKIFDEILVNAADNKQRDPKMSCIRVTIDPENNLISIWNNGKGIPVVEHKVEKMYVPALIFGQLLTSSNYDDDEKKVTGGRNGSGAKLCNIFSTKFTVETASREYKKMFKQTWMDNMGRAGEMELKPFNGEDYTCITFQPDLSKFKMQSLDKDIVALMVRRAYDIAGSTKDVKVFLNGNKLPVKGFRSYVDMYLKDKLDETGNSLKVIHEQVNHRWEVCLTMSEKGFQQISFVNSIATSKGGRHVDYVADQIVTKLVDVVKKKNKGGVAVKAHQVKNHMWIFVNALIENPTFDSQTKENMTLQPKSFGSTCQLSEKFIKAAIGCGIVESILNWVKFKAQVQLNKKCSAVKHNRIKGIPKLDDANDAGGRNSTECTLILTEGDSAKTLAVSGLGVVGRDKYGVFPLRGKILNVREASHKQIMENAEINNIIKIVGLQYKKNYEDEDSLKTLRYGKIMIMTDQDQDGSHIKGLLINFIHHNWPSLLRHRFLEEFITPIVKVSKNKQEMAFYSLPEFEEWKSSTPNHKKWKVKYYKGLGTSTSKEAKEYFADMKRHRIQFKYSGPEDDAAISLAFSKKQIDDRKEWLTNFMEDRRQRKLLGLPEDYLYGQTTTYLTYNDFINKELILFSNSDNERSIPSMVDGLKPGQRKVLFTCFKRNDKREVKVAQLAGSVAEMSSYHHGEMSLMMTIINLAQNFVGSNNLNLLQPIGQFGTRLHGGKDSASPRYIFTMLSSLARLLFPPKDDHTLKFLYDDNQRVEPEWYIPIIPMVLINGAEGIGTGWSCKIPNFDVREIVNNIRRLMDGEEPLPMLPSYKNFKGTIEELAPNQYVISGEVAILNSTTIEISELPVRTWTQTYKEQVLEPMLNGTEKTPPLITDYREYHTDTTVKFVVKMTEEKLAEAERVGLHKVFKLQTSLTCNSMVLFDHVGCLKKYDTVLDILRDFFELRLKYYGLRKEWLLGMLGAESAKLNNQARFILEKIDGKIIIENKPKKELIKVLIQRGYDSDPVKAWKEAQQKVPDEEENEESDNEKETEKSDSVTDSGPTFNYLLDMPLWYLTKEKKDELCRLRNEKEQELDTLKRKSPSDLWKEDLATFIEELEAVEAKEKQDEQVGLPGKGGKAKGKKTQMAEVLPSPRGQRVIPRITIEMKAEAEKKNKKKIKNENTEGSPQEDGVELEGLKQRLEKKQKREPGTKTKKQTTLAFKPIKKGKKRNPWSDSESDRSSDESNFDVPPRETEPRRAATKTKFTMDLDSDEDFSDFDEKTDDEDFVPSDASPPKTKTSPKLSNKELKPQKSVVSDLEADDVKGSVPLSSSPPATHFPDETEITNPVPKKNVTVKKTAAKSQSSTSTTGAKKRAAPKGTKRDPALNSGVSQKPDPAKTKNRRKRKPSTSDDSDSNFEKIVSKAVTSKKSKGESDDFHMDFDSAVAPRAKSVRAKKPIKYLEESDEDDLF
Protocol: Topoisomerase II catalytic activity (DNA strand passage activity) was measured by using a filter-based kDNA decatenation assay as described in Jensen et al., 2002. Briefly, 200 ng ^3H labelled kDNA isolated from C. fasciculata was incubated with increasing concentrations of drug in 20 μL reaction buffer containing 10 mM TRIS-HCl pH 7.7, 50 mM NaCl, 50 mM KCl, 5 mM MgCl2, 1 mM EDTA, 15 μg/mL BSA and 1 mM ATP using two units of purified wild-type or Y165S mutant topoisomerase II α for 20 minutes at 37° C. (where one unit of activity is defined as the amount of enzyme required for complete decatenation in the absence of drug). After addition of 5× stop buffer (5% Sarkosyl, 0.0025% bromophenol blue, and 50% glycerol), unprocessed kDNA network and decatenated DNA mini-circles were separated by filtering, and the amount of unprocessed kDNA in each reaction was determined by scintillation counting.
Inhibition of human topoisomerase II α DNA strand passage activity was assessed by decatenation of tritium-labelled Crithidia fasiculata kDNA using a filter-based assay to separate unprocessed kDNA network from decatenated mini-circles.

topoisomerase II α [4] = biological target: T1, topoisomerase II α; experiment: Topoisomerase II retention on DNA/streptavidin beads (salt-stable complex); type: biochemical; design: made in house; host or cells: yeast (over-expressing yeast cells)
Protocol: An assay capable of measuring non-covalent complexes of topoisomerase II on closed circular DNA was performed as described in Morris et al., 2000, with modifications. When performing six reactions, 60 μL M280 streptavidin coated bead (Dynal A/S, Oslo, Norway) slurry corresponding to 600 μg beads was transferred to a 1.5 mL tube that was then placed in a Dynal MPC-E (magnetic particle concentrator) rack (Dynal A/S, Oslo, Norway) for 1 to 2 minutes until the beads had settled on the tube wall. The beads were then washed twice in the DNA binding solution supplied with the kilobase binding kit (Dynal A/S, Oslo, Norway) by repeating this step. Finally, the beads were re-suspended in 250 μL DNA binding solution. A preparation of biotin labelled plasmid DNA containing a 5-kb super coiled circular DNA molecule carrying 8 successive PNA (Peptide Nucleic Acid) linked biotin labels at one known position (pGeneGrip biotin blank vector, Gene Therapy Systems Inc., San Diego, Calif., USA) was made by mixing 220 μL distilled water and 30 μL biotinylated DNA. After mixing the beads and the DNA preparation, the sample was left overnight at room temperature under gentle agitation to assure optimal formation of the DynaBeads DNA complex. Next, the complex was washed twice in 480 μL wash buffer (10 mM TRIS-HCL, pH 7.5, 2 M NaCl, 1 mM EDTA), once in distilled water, and once in topoisomerase reaction buffer (10 mM TRIS-HCl, pH 7.9, 50 mM NaCl, 50 mM KCl, 5 mM MgCl2, 1 mM EDTA, […] BSA). Then, the beads were re-suspended in 600 μL topoisomerase II buffer and divided into 6 tubes. 100 μL reactions containing plasmid DNA coated DynaBeads, topoisomerase II buffer, 2 μg purified human topoisomerase […] and drugs were incubated for 30 minutes at 37° C. When included, ATP was present at 1 mM. […]
FIG. 7 describes the results of studies of the ability of NSC 35866 to stabilise a salt-stable complex of human topoisomerase II α on covalently closed circular DNA. Retention of salt-stable (to 2 M KCl) complexes of human topoisomerase II α on circular DNA attached to magnetic beads via biotin-streptavidin linkage was determined by eluting retained protein by adding running buffer containing 4% SDS followed by heating to 100° C. for 10 minutes. The amount of human topoisomerase II α protein retained was then determined by running the samples on 7% SDS-PAGE gels followed by straining with GelCode Blue Strain Reagent (Pierce, Rockford, Ill., USA): Lane 1, no drug; Lane 2, 200 μM ICRF-187; Lane 3, 30 μM NSC 35866; Lane 4, 100 μM NSC 35866; Lane 5, 300 μM NSC 35866; Lane 6, 1000 μM NSC 35866; Lane K, 2 μg human topoisomerase II α. […]

T1 sequence (P11388 whole entry): as the sequence (P11388 whole entry Y165S) above, with S165Y counted along it

C[C@@H](CN1CC(=O)NC(=O)C1)N1CC(=O)NC(=O)C1 [ICRF-187, (+)-1,2-bis(3,5-dioxopiperazinyl-1-yl)propane, reference compound]
ATPase activity relative to that seen in the absence of drug (topoisomerase II α [1]; 100 μM, in the absence of DNA): 75%
IC50 (topoisomerase II α [1]; in the presence of DNA (DNA-stimulated), read-out: IC50, inhibition of ATPase activity): 1000 nM
effect on amount of extractable topoisomerase II α, in words (topoisomerase II α [2]): clearly reduced
inhibition of catalytic activity of the Y165S protein, in words [3]: incapable of inhibiting the catalytic activity of the Y165S protein
retention of topoisomerase II on DNA beads after 2 M KCl wash, in words (topoisomerase II α [4]; 200 μM, with ATP): strongly induced the retention of topoisomerase II to the beads
retention of topoisomerase II on DNA beads, in words (topoisomerase II α [4]; in the absence of ATP): strongly depended on ATP
